Test results taken from patent US7666843B2, “Methods and compositions for treatment of neurological disorder” (Children's Medical Center Corporation, priority 2002, dated 2010).
Entries after “also recorded” stand apart in the source; their conditions may differ.

Legend:
[1] = test system: goldfish retinal ganglion cells; test: Goldfish retinal ganglion cell culture, axon outgrowth bioassay; type: cell-based; details: goldfish RGCs; for effect on axon growth induced by inosine: 2-DG 1 mM; for axon outgrowth in response to glucose/mannose analogs: analog alone (L-enantiomers 100 μM, D-glucosamine 25 μM, 2-deoxy-D-glucose 1 mM), FIG. 8a; for effect on glucose-induced axon outgrowth: glucose 10 μM (50 μM with late fraction), dBcAMP 1 mM, 3-O-MG 100:1, 2-DG 1 mM; for effect on axon growth induced by VE<3: FIG. 2; for axon outgrowth in response to monosaccharides: sugar alone, 50 or 100 μM, D-configuration, FIG. 7a; for axon outgrowth, extracellular 6-phosphate: FIG. 8f
Experimental: Goldfish retinal ganglion cells are prepared as described in PCT application serial no. PCT/US98/03001, the contents of which are incorporated herein by reference, and contacted with a hexose derivative such as mannose. The ability of the hexose derivative to stimulate axonal outgrowth from the goldfish retinal ganglion cells is monitored as described in PCT application serial no. PCT/US98/03001.
Goldfish retinal ganglion cell cultures. Mammalian AF-1 was initially characterized in bioassays using dissociated goldfish retinal ganglion cells (RGCs). In brief, Comet variety goldfish (Mt. Parnell Fisheries, PA) were dark-adapted, cooled to 4° C., and killed by cervical transection. Retinas were dissected and dissociated by incubation in papain followed by a series of trituration steps that result in an RGC-enriched cell suspension (Schwartz & Agronoff,; Schwalb et al., 1995). Approximately 500 RGCs per well were plated together with the experimental samples to be tested in defined, serum-free media containing Leibovitz' L15 media (Gibco BRL) plus N1 and N2 supplements (Bottenstein, Saito), antioxidants, and bovine serum albumin as described in detail elsewhere (Schwalb et al., 1995). In each experiment, 4 wells of each sample were distributed in 24-well plates in a blinded fashion so that the person evaluating axon outgrowth was unaware of the type of sample present in each well. Experiments included a positive control (previously validated goldfish AF-1 or inosine) and a negative control (defined media alone), likewise distributed on the plate in quadruplicate in a blinded fashion. After 6 days in culture at 21° C., axon outgrowth, operationally defined as the percent of RGCs that extended an axon≧5 cell diameters in length, was evaluated in approximately 150 consecutively encountered RGCs per well. […] Data are presented as normalized means ± SEM. All experiments were repeated at least 3 times.

[2] = test system: rat retinal ganglion cells; test: Rat retinal ganglion cell culture, axon outgrowth; type: cell-based; details: rat RGCs; for axon outgrowth in the presence of forskolin: with forskolin, compared to forskolin alone, glucose up to 5 mM, mannose-6-phosphate up to 10 mM, FIG. 9a, 9c
Description: Rat retinal ganglion cell cultures. Retinal ganglion cells were identified by retrograde labeling with Fluorogold (FG: Fluorochrome, Inc.). […] After allowing 7 days for FG to be retrogradely transported up the optic nerve, rats were killed, eyes were removed, and the retinas dissected. Retinas were dissociated with papain treatment followed by trituration. Mixed cultures containing 100-150 FG-labeled RGCs per well were maintained in 24 well plates in a defined, serum-free media (Minimal Essential Media containing NaHCO3,) at 37° C. at 5% CO2 for 3 days.

[3] = forskolin 10 μM, Rp-cAMPs 100 μM, MH 10 mM
[4] = 6-TG 20 μM, NBTI 20 μM, forskolin 10 μM, Sp-cAMPs 150 μM, Rp-cAMPs 100 μM, H89 5 μM, FIG. 2, 4

O=CC[C@@H](O)[C@H](O)[C@H](O)CO [2-deoxy-D-glucose]
effect on axon growth induced by inosine ([1]; 6-TG 20 μM, NBTI 20 μM, listed as 2-DG): blocked the effects of both glucose and inosine; also recorded: also blocks the effect of inosine | axon outgrowth in response to glucose/mannose analogs [1]: ineffective; also recorded: No activity | effect on glucose-induced axon outgrowth ([1]; forskolin 10 μM, Rp-cAMPs 100 μM, MH 10 mM, listed as 2-DG): blocked the effects of both glucose and inosine; also recorded: does block the effect of glucose

CO[C@@H]([C@H](O)[C@H](O)CO)[C@@H](O)C=O [3-O-methyl-D-glucose]
axon outgrowth in response to glucose/mannose analogs [1]: ineffective; also recorded: No activity | effect on glucose-induced axon outgrowth [1, 3]: fails to block the effect of glucose

Nc1nc2nc[nH]c2c(=S)[nH]1 [6-TG, 6-thioguanine]
effect on axon growth induced by inosine ([1]; 6-TG 20 μM, NBTI 20 μM): only partially blocked; also recorded: only partially inhibited | effect on axon growth induced by AF-1 [1, 4]: below baseline levels | effect on axon growth induced by VE<3 ([1]; 6-TG 20 μM, NBTI 20 μM): below baseline levels; also recorded: inhibited completely | effect on growth induced by VE<3 plus forskolin or Sp-cAMPs ([2]; 6-TG, FIG. 3a): reduced growth; also recorded: strongly inhibited

O=C[C@H](O)[C@H](O)[C@H](O)[C@H](O)CO [D-allose]
axon outgrowth in response to monosaccharides [1]: failed to stimulate outgrowth

O=C[C@@H](O)[C@H](O)[C@H](O)[C@H](O)CO [D-altrose]
axon outgrowth in response to monosaccharides [1]: failed to stimulate outgrowth

O=C[C@H](O)[C@@H](O)[C@@H](O)[C@H](O)CO [D-galactose]
axon outgrowth in response to monosaccharides [1]: failed to stimulate outgrowth

N[C@H]1C(O)O[C@H](CO)[C@@H](O)[C@@H]1O (stereo partly drawn) [D-glucosamine]
axon outgrowth in response to glucose/mannose analogs [1]: strongly active | axon outgrowth in the presence of forskolin [2]: did not respond

O=C[C@H](O)[C@@H](O)[C@H](O)[C@H](O)COP(=O)(O)O [D-glucose-6-phosphate]
axon outgrowth, extracellular 6-phosphate ([1]; 100 μM): modest amount of outgrowth | axon outgrowth, extracellular 6-phosphate ([1]; 1 mM): appreciable growth | axon outgrowth in response to glucose/mannose analogs [1]: relatively modest but statistically significant amount of outgrowth | axon outgrowth in response to glucose/mannose analogs ([1]; listed as D-glc-6-P): small but statistically significant level of outgrowth

O=C[C@H](O)[C@H](O)[C@@H](O)[C@H](O)CO [D-gulose]
axon outgrowth in response to monosaccharides [1]: failed to stimulate outgrowth | axon outgrowth in the presence of forskolin [2]: some activity

N[C@@H]1C(O)O[C@H](CO)[C@@H](O)[C@@H]1O (stereo partly drawn) [D-mannosamine]
axon outgrowth in response to glucose/mannose analogs [1]: ineffective

O=C[C@@H](O)[C@@H](O)[C@H](O)[C@H](O)COP(=O)(O)O [D-mannose-6-phosphate]
axon outgrowth, extracellular 6-phosphate ([1]; 100 μM): modest amount of outgrowth | axon outgrowth, extracellular 6-phosphate ([1]; 1 mM): appreciable growth | axon outgrowth in response to glucose/mannose analogs [1]: relatively modest but statistically significant amount of outgrowth | axon outgrowth in response to glucose/mannose analogs ([1]; listed as D-man-6-P): small but statistically significant level of outgrowth | axon outgrowth in the presence of forskolin [2]: did not respond

O=C[C@@H](O)[C@@H](O)[C@@H](O)[C@H](O)CO [D-talose]
axon outgrowth in response to monosaccharides [1]: failed to stimulate outgrowth

O=S(=O)(NCCNC/C=C/c1ccc(Br)cc1)c1cccc2cnccc12 [H89]
effect on axon growth induced by AF-1 [1, 4]: not diminished | effect on axon growth induced by AF-1 ([1]; 6-TG 20 μM, NBTI 20 μM, forskolin 10 μM, Sp-cAMPs 150 μM, Rp-cAMPs 100 μM, H89 5 μM, FIG. 2, 4, listed as H-89): did not reduce AF-1 induced growth | effect on axon growth induced by AF-1 ([1]; H89 20 μM, FIG. 4): diminished the effect of AF-1; also recorded: higher concentrations of H89 (20 μM) did

CCCCCCOC(=O)[C@]1(O)C[C@@H]2O[C@@]1(C)n1c3ccccc3c3c4c(c5c6ccccc6n2c5c31)C(=O)NC4 [KT5720]
effect on mannose-induced axon outgrowth ([1]; KT5720 1 μM, MH 10 mM, dBcAMP, late fraction with 50 μM mannose): did not diminish the effect of mannose; also recorded: little effect on mannose-induced growth | effect on mannose-induced axon outgrowth ([1]; KT5720 10 μM, FIG. 7f): only a slight effect

O=C[C@H](O)[C@H](O)[C@@H](O)[C@@H](O)CO [L-mannose]
axon outgrowth in response to glucose/mannose analogs [1]: completely inactive; also recorded: inactivity | axon outgrowth in the presence of forskolin [2]: inactivity

O=[N+]([O-])c1ccc(CSc2ncnc3c2ncn3[C@@H]2O[C@H](CO)[C@@H](O)[C@H]2O)cc1 [NBTI, 4-(nitrobenzyl-6-thioinosine)]
effect on axon growth induced by inosine ([1]; 6-TG 20 μM, NBTI 20 μM): effectively blocked; also recorded: blocked completely | effect on axon growth induced by AF-1 [1, 4]: very little effect | effect on axon growth induced by VE<3 ([1]; 6-TG 20 μM, NBTI 20 μM): very little effect; also recorded: not affected

Nc1ncnc2c1ncn2[C@@H]1O[C@@H]2CO[P@@](O)(=S)O[C@H]2[C@H]1O [Rp-cAMPs]
effect on axon growth induced by AF-1 [1, 4]: not diminished | effect on axon growth induced by AF-1 ([1]; 6-TG 20 μM, NBTI 20 μM, forskolin 10 μM, Sp-cAMPs 150 μM, Rp-cAMPs 100 μM, H89 5 μM, FIG. 2, 4, listed as Rp-cAMP-s): did not reduce AF-1 induced growth | block of glucose-induced outgrowth ([1]; Rp-cAMPs 1 mM): 48% | effect on glucose-induced axon outgrowth [1, 3]: no effect on glucose-induced outgrowth

CC(=O)N[C@H]1C(O)O[C@H](CO)[C@@H](O)[C@@H]1O (some centres unmarked) [acetylglucosamine, N-acetyl-glucosamine]
axon outgrowth in response to glucose/mannose analogs [1]: ineffective | axon outgrowth in response to glucose/mannose analogs ([1]; listed as N-acetyl-glucosamine): No activity

O=C(CO)[C@@H](O)[C@H](O)[C@H](O)CO [fructose]
axon outgrowth in response to monosaccharides [1]: failed to stimulate outgrowth

C[C@H](O)[C@@H](O)[C@@H](O)[C@H](O)C=O [fucose, L-fucose]
axon outgrowth in response to glucose/mannose analogs [1]: ineffective | axon outgrowth in response to glucose/mannose analogs ([1]; listed as L-fucose): No activity

COC(=O)C(C)=O [methyl pyruvate]
effect on outgrowth of adding energy substrate to the media ([1]; 5 mM): had no effect

CO[C@H]1O[C@H](CO)[C@@H](O)[C@H](O)[C@H]1O [methyl-α-D-glucopyranoside]
axon outgrowth in response to glucose/mannose analogs [1]: ineffective | axon outgrowth in response to glucose/mannose analogs ([1]; listed as methyl-α-glucose pyranose): No activity

CO[C@@H]1O[C@H](CO)[C@@H](O)[C@H](O)[C@H]1O [methyl-β-D-glucopyranoside]
axon outgrowth in response to glucose/mannose analogs [1]: ineffective | axon outgrowth in response to glucose/mannose analogs ([1]; listed as methyl-β-glucose pyranose): No activity

O[C@H]1[C@H](O)[C@@H](O)[C@H](O)[C@@H](O)[C@H]1O [myo-inositol]
axon outgrowth in response to monosaccharides [1]: failed to stimulate outgrowth

O=C(CO)[C@H](O)[C@@H](O)[C@H](O)CO [sorbose]
axon outgrowth in response to monosaccharides [1]: failed to stimulate outgrowth
